Values joined by “and” are separate entries in the source; they are usually repeats but may differ in a detail not shown here. Equal entries are not always repeated.

The melting point is the temperature of the solid-liquid transition. In turn, `NC(=O)c1cccc2ccccc12` [naphthalene-1-carboxamide] showed a melting point of 208 °C.

In turn, `c1ccc2c(c1)c1ccccc1c1ccccc21` [Triphenylene] displayed a melting point of 197 °C.

Consider `NC(=O)Cc1cccc2ccccc12` [1-naphthylacetamide], for which the melting point was found to be 177 °C.

For `Nc1ccc(Br)cc1` [4-Bromoaniline], the melting point was 66 °C.

`O=C(CCl)N1CCOCC1` [4-(chloroacetyl)morpholine]: the melting point was found to be 29 °C.

With `C/C=C\C#N` [Z-crotononitrile], the melting point was -72.6 °C.

`COc1ccccc1[N+](=O)[O-]` [2-nitroanisole] returned a melting point of 10 °C.

The molecule `O=[N+]([O-])c1ccc(Cl)cc1Cl` [2,4-dichloro-1-nitrobenzene] had a melting point of 31 °C.

For the molecule `O=C(O)C1CC1` [cyclopropanecarboxylic acid], the melting point is 18 °C and 18.5 °C and 16.8 °C.

In the case of `O=C(O)CCCCCCCCC(=O)O` [sebacic_acid], the melting point came to 133 °C.

For the molecule `CCCCCCCCCCCCI` [1-iodododecane], the melting point is 0 °C.

The molecule `Nc1cccc(Cl)c1` [m-chloroaniline] displayed a melting point of -10 °C.

`Cc1c[nH]c(C)n1` [2,4-dimethylimidazole] registered a melting point of 86 °C.

In turn, `C#CC1(O)CCCCC1` [1-ethynyl-1-cyclohexanol] gave a melting point of 33 °C.

As to `Cc1cc(Cl)cc(C=O)c1O` [5-chloro-2-hydroxy-3-methylbenzaldehyde], the melting point worked out at 59 °C.

For the molecule `COc1ccc(-c2csc(/C(C#N)=C/c3ccc(Cl)cc3Cl)n2)cc1`, the melting point is 143 °C.

The molecule `CC1(C)c2ccccc2Oc2ccccc21` [9,9-dimethylxanthene] yielded a melting point of 42 °C.

Molecule `Cc1ccc(Cc2ccc(C)cc2)cc1` [4,4'-dimethyldiphenylmethane] yielded a melting point of 29 °C.

Take `CC1=CCC(C(C)(C)O)CC1` (stereo not drawn) [alpha-terpineol]: the melting point stood at 32 °C.

Molecule `CCC(C)C1(CC)C(=O)NC(=O)NC1=O` (stereo not drawn) [Butabarbital] returned a melting point of 166 °C.

`CCCCCCCCCCCCCCCCCCN1c2ccccc2C(C)(C)C12C=Cc1cc([N+](=O)[O-])ccc1O2` (stereo not drawn): the melting point stood at 81 °C.

The molecule `O=C(Oc1ccccc1)c1ccccc1` [phenyl_benzoate] displayed a melting point of 70 °C.

Take `CNCCO` [2-(Methylamino)ethanol]: the melting point is -4.5 °C.

Turning to `COCC(CCC(=O)OC)N1CC=CC1` (stereo not drawn) [methyl 4-(2,5-dihydro-1H-pyrrol-1-yl)-5-methoxypentanoate], the melting point was 145 °C.

Take `O=C1CCC(=O)N1Br` [n-bromosuccinimide]: the melting point was 180 °C.

For the molecule `NS(=O)(=O)c1cc(C(=O)O)c(NCc2ccco2)cc1Cl` [furosemide], the melting point was 206 °C (2×) and 208 °C and 204 °C (2×).

`ClC1=C(Cl)C2(Cl)C3C4OC4C(Cl)C3C1(Cl)C2(Cl)Cl` (stereo not drawn) [Heptachlor epoxide] displayed a melting point of 160 °C.

`CCC(C)c1ccccc1O` (stereo not drawn) [2-sec-Butylphenol] displayed a melting point of 12 °C.

Turning to `N#CCc1ccc(Cc2ccccc2)cc1` [4-benzylphenylacetonitrile], the melting point was found to be 36 °C.

As to `Oc1ccccc1C(F)(F)F` [2-(trifluoromethyl)phenol], the melting point stood at 46 °C.

Molecule `Cc1ccn[nH]c1=O` [4-Methylpyridazin-3(2H)-one] had a melting point of 154 °C.

`C1CCC(NC2CCCCC2)CC1` [N-Cyclohexylcyclohexanamine]: the melting point was -1 °C.

The molecule `Cc1cc(O)c(C(C)C)cc1C1(c2cc(C(C)C)c(O)cc2C)OC(=O)c2ccccc21` [thymolphthalein] came in with a melting point of 252 °C.

Regarding `ClC(Br)Br` [chlorodibromomethane], the melting point was -22 °C.

Molecule `CCn1cc(C(=O)O)c(=O)c2ccc(C)nc21` [nalidixic acid] came in with a melting point of 229 °C.

The molecule `NC(=O)[C@H](Cc1ccccc1)NC(=O)OCc1ccccc1` [Nalpha-[(benzyloxy)carbonyl]phenylalaninamide] showed a melting point of 163 °C.

`C[C@H]1c2cccc(O)c2C(=O)C2=C(O)[C@]3(O)C(=O)C(C(N)=O)=C(O)[C@@H](N(C)C)[C@@H]3[C@@H](O)[C@@H]21` [Doxycycline]: the melting point came out at 201 °C.

Take `C1CCc2nnnn2CC1` [1,5-pentamethylene-1h-tetrazole]: the melting point worked out at 60 °C.

Consider `CC(CCC(=O)O)C1CCC2C3CCC4CC(=O)CCC4(C)C3CCC12C` (stereo not drawn) [3-oxocholan-24-oic acid], for which the melting point turned out to be 140 °C.

In turn, `CS(=O)(=O)CCO` [2-(methylsulfonyl)ethanol] returned a melting point of 29 °C.

`N#Cc1ccncc1Cl` [3-chloro-4-cyanopyridine] showed a melting point of 73 °C.

As for `CCCCC1=NC2(CCCC2)C(=O)N1Cc1ccc(-c2ccccc2-c2nnn[nH]2)cc1` [irbesartan], the melting point amounted to 180 °C.

Take `COc1cccc(Cl)c1Cl` [2,3-dichloroanisole]: the melting point is 32 °C.

In turn, `COc1ccc(C=CC(=O)c2ccc(O)cc2)cc1` [2-Propen-1-one, 1-(4-hydroxyphenyl)-3-(4-methoxyphenyl)-] yielded a melting point of 188 °C.

With `CCOC(=O)c1cc(C)n(-c2ccc(C)cc2)c1C` [OSM-S-30], the melting point is 61 °C.

`Oc1ccc(-c2ccccc2)cc1` [Biphenyl-4-ol] yielded a melting point of 167 °C.

With `O=C(CO)[C@@H](O)[C@@H](O)[C@H](O)CO` [D-tagatose], the melting point was found to be 135 °C.

For `Brc1ccc(Br)c(Br)c1` [1,2,4-tribromobenzene], the melting point is 43 °C (2×) and 44 °C.

`CN(C)CC(=O)O` [Dimethylglycine] showed a melting point of 186 °C.

Molecule `CCCC(=O)OCC` [ethyl butyrate] had a melting point of -93 °C.

In the case of `COc1ccc(C(=O)Cl)cc1` [4-methoxybenzoyl chloride], the melting point amounted to 22 °C.

`O=C[C@H](O)[C@@H](O)[C@H](O)[C@H](O)CO` [D-glucose, anhydrous] gave a melting point of 151 °C.

Molecule `CCC(C)(C)CC` [3,3-dimethylpentane] gave a melting point of -134 °C.

`Nc1cnc2ccccc2c1` [3-aminoquinoline] showed a melting point of 94 °C.

In the case of `O=C(O)CCCCCCCCCCCCCCC(=O)O` [Hexadecanedioic acid], the melting point was 125 °C.

`CCC(C)I` (stereo not drawn) [2-Iodobutane] yielded a melting point of -104 °C.

Molecule `Nc1c(Cl)cc([N+](=O)[O-])cc1[N+](=O)[O-]` [6-chloro-2,4-dinitroaniline] displayed a melting point of 157 °C.

`CC(=O)O[C@]1(C(C)=O)CC[C@H]2[C@@H]3C[C@H](C)C4=CC(=O)CC[C@]4(C)[C@H]3CC[C@@]21C` [(6alpha)-6-Methyl-3,20-dioxopregn-4-en-17-yl acetate] returned a melting point of 208 °C.

`Cc1ccc(C(C)(C)C)cc1` [1-tert-Butyl-4-methylbenzene] yielded a melting point of -52 °C.

`OC[C@@H](O)[C@@H](O)[C@H](O)[C@@H](O)CO` [sorbitol]: the melting point was 111 °C.

The molecule `CC(=O)c1cccc(N=C=S)c1` [3-acetylphenyl isothiocyanate] returned a melting point of 24 °C.

As for `O=C(O)c1cc([N+](=O)[O-])ccc1O` [5-nitrosalicylic acid], the melting point amounted to 232 °C.

`Nc1cc(Br)ccc1Br` [2,5-dibromoaniline]: the melting point was determined as 54 °C.

`O=C(O)/C=C/c1cccc(Br)c1` [trans-3-bromocinnamic acid] showed a melting point of 180 °C.

For `CC=O` [Acetaldehyde], the melting point was -124 °C.

Molecule `Cc1ccc(B(O)O)cc1N` [3-amino-4-methylbenzeneboronic acid] showed a melting point of 250 °C.

Turning to `Nc1ccc(Cl)c(Cl)c1` [3,4-Dichloroaniline], the melting point is 72 °C.

On to `Cc1cc(=O)oc2c(O)c(O)ccc12` [7,8-dihydroxy-4-methylcomarin], for which the melting point is 243 °C.

`O=C(O)Cc1ccc([N+](=O)[O-])cc1` [4-nitrophenylacetic acid] yielded a melting point of 154 °C.

`C[C@]12CC[C@H](O)CC1=CC[C@@H]1[C@@H]2CC[C@]2(C)C(=O)CC[C@@H]12` [3-Beta-Hydroxy-5-Androsten-17-One] yielded a melting point of 140 °C.

`COC(=O)c1ccc(OC)cc1` [methyl_4-methoxybenzoate] registered a melting point of 50 °C.

For `O=C5\C=C4/C(C3CCC2(C(CCC2OC(=O)Cc1ccccc1)C3CC4)C)(C)CC5` (stereo not drawn) [testosterone phenylacetate], the melting point is 129 °C.

Consider `CCC(=O)OC(Cc1ccccc1)(c1ccccc1)C(C)CN(C)C` (stereo not drawn) [propoxyphene], for which the melting point was determined as 75 °C.

`O=C(O)Cc1cccc2ccccc12` [Naphthalen-1-Yl-Acetic Acid] showed a melting point of 135 °C.

In the case of `CC1(C)[C@H]2CC[C@]1(C)C(=O)C2` [Camphor], the melting point amounted to 180 °C.

On to `COCC(C)O` (stereo not drawn) [1-Methoxypropan-2-ol], for which the melting point is -97 °C.

Turning to `Brc1ccccc1` [Bromobenzene], the melting point was -31 °C.

The molecule `O=C(O)c1cnc(Br)s1` [2-bromothiazole-5-carboxylic acid] returned a melting point of 182 °C.

Consider `Cc1cn([C@H]2C[C@H](O)[C@@H](CO)O2)c(=O)[nH]c1=O` [thymidine], for which the melting point was found to be 188 °C.

`COC(=O)c1ccc(N)nc1` [methyl 6-aminonicotinate] showed a melting point of 155 °C.

`Cc1nc(/C(C#N)=C\c2ccc(Cl)cc2Cl)sc1/N=N/c1ccc(F)cc1` returned a melting point of 139 °C.

As to `Cc1c(N)cccc1Cl` [3-chloro-2-methylaniline], the melting point is 2 °C.

`CC(=O)C(C)(C)C` [3,3-dimethyl-2-butanone] gave a melting point of -52 °C.

`CC(C)Cc1ccc(C(C)C(=O)O)cc1` (stereo not drawn) [ibuprofen] yielded a melting point of 76 °C.

In the case of `c1ccc(-c2cccc(-c3ccccc3)c2)cc1` [m-terphenyl], the melting point turned out to be 87 °C.

With `CN(C)C(=S)SSC(=S)N(C)C` [tetramethylthiuram disulfide], the melting point was determined as 150 °C.

Regarding `Clc1cc(Cl)c(Cl)c(Cl)c1Cl` [Pentachlorobenzene], the melting point came to 85 °C.

`C=CCCCCCCCC` [1-decene] gave a melting point of -66 °C.

(Values after the Bradley open melting point set (2014).)
